According to ChEMBL document CHEMBL4739709, “Novel cyclin-dependent kinase 8 and/or 19 inhibitor” (2020):
Calls of active or inactive are those of the source. The calls are words filed in the database; no cut-off is given here.

Experiments:
[1] = target: CDK8/Cyclin C (Homo sapiens) (UniProt P49336+P24863); assay: Inhibition of human CDK8/cyclin C at 1 uM incubated for 30 mins by ELISA; format: protein-complex assay
[2] = tested on: MV4-11; assay: Inhibition of cell proliferation of human MV4-11 cells at 1 uM incubated for 3 days by CellTiter 96 aqueous one solution cell proliferation assay; format: functional; conditions: MV4-11, 72 h, time 3 day
[3] = target: Cyclin-dependent kinase 19 (Homo sapiens) (UniProt Q9BWU1); assay: Inhibition of CDK19 (unknown origin) at 1 uM incubated for 30 mins by ELISA
[4] = target: RAC-alpha serine/threonine-protein kinase (Homo sapiens) (UniProt P31749); assay: Inhibition of human AKT1 at 1 uM using substrate peptide by off-chip mobility shift assay
[5] = target: AMP-activated protein kinase (AMPK) alpha-1/beta-1/gamma-1 (Homo sapiens) (UniProt P54619+Q9Y478+Q13131); assay: Inhibition of human AMPKalpha1/beta1/gamma1 at 1 uM using substrate peptide by off-chip mobility shift assay
[6] = target: Aurora kinase A (Homo sapiens) (UniProt O14965); assay: Inhibition of human Aurora A at 1 uM using substrate peptide by off-chip mobility shift assay
[7] = target: Calcium/calmodulin-dependent protein kinase type IV (Homo sapiens) (UniProt Q16566); assay: Inhibition of human CaMK4 at 1 uM using substrate peptide by off-chip mobility shift assay
[8] = target: Cyclin-dependent kinase 1/cyclin B1 (Homo sapiens) (UniProt P06493+P14635); assay: Inhibition of human CDC2/CycB1 at 1 uM using substrate peptide by off-chip mobility shift assay; format: protein-complex assay
[9] = target: CDK2/Cyclin C (Homo sapiens) (UniProt P24941+P24863); assay: Inhibition of human CDK2/CycC2 at 1 uM using substrate peptide by off-chip mobility shift assay
[10] = target: Cyclin-dependent kinase 2/cyclin E1 (Homo sapiens) (UniProt P24864+P24941); assay: Inhibition of human CDK2/CycE1 at 1 uM using substrate peptide by off-chip mobility shift assay; format: protein-complex assay
[11] = target: CDK3/Cyclin E (Homo sapiens) (UniProt P24864+Q00526); assay: Inhibition of human CDK3/CycE1 at 1 uM using substrate peptide by off-chip mobility shift assay; format: protein-complex assay
[12] = target: CDK4/Cyclin D3 (Homo sapiens) (UniProt P11802+P30281); assay: Inhibition of human CDK4/CycD3 at 1 uM using substrate peptide by off-chip mobility shift assay; format: protein-complex assay
[13] = target: Cyclin-dependent kinase 5/CDK5 activator 1 (Homo sapiens) (UniProt Q00535+Q15078); assay: Inhibition of human CDK5/p25 at 1 uM using substrate peptide by off-chip mobility shift assay; format: protein-complex assay
[14] = target: CDK6/cyclin D3 (Homo sapiens) (UniProt P30281+Q00534); assay: Inhibition of human CDK6/cyclinD3 at 1 uM using substrate peptide by off-chip mobility shift assay; format: protein-complex assay
[15] = target: CDK7/Cyclin H/MNAT1 (Homo sapiens) (UniProt P51946+P50613+P51948); assay: Inhibition of human CDK7/CycH/MAT1 at 1 uM using substrate peptide by off-chip mobility shift assay; format: protein-complex assay
[16] = target: CDK9/cyclin T1 (Homo sapiens) (UniProt O60563+P50750); assay: Inhibition of human CDK9/CycT1 at 1 uM using substrate peptide by off-chip mobility shift assay; format: protein-complex assay
[17] = target: Serine/threonine-protein kinase Chk1 (Homo sapiens) (UniProt O14757); assay: Inhibition of human CHK1 at 1 uM using substrate peptide by off-chip mobility shift assay
[18] = organism: Homo sapiens; assay: Inhibition of human CK1delta at 1 uM using substrate peptide by off-chip mobility shift assay
[19] = target: Death-associated protein kinase 1 (Homo sapiens) (UniProt P53355); assay: Inhibition of human DAPK1 at 1 uM using substrate peptide by off-chip mobility shift assay
[20] = target: Dual specificity tyrosine-phosphorylation-regulated kinase 1B (Homo sapiens) (UniProt Q9Y463); assay: Inhibition of human DYRK1B at 1 uM using substrate peptide by off-chip mobility shift assay
[21] = target: Mitogen-activated protein kinase 1 (Homo sapiens) (UniProt P28482); assay: Inhibition of human ERK2 at 1 uM using substrate peptide by off-chip mobility shift assay
[22] = target: Glycogen synthase kinase-3 beta (Homo sapiens) (UniProt P49841); assay: Inhibition of human GSK3beta at 1 uM using substrate peptide by off-chip mobility shift assay
[23] = target: Mitogen-activated protein kinase kinase kinase kinase 4 (Homo sapiens) (UniProt O95819); assay: Inhibition of human HGK at 1 uM using substrate peptide by off-chip mobility shift assay
[24] = target: Inhibitor of nuclear factor kappa-B kinase subunit beta (Homo sapiens) (UniProt O14920); assay: Inhibition of human IKKbeta at 1 uM using substrate peptide by off-chip mobility shift assay
[25] = target: Interleukin-1 receptor-associated kinase 4 (Homo sapiens) (UniProt Q9NWZ3); assay: Inhibition of human IRAK4 at 1 uM using substrate peptide by off-chip mobility shift assay
[26] = target: Interleukin-1 receptor-associated kinase 4 (Homo sapiens) (UniProt Q9NWZ3); assay: Inhibition of human JNK2 at 1 uM using substrate peptide by off-chip mobility shift assay
[27] = target: Mitogen-activated protein kinase kinase kinase kinase 2 (Homo sapiens) (UniProt Q12851); assay: Inhibition of human MAP4K2 at 1 uM using substrate peptide by off-chip mobility shift assay
[28] = target: Serine/threonine-protein kinase 4 (Homo sapiens) (UniProt Q13043); assay: Inhibition of human MST1 at 1 uM using substrate peptide by off-chip mobility shift assay
[29] = target: Serine/threonine-protein kinase Nek2 (Homo sapiens) (UniProt P51955); assay: Inhibition of human NEK2 at 1 uM using substrate peptide by off-chip mobility shift assay
[30] = target: Mitogen-activated protein kinase 14 (Homo sapiens) (UniProt Q16539); assay: Inhibition of human p38alpha at 1 uM using substrate peptide by off-chip mobility shift assay
[31] = organism: Homo sapiens; assay: Inhibition of human p70S6K at 1 uM using substrate peptide by off-chip mobility shift assay
[32] = target: Serine/threonine-protein kinase PAK 2 (Homo sapiens) (UniProt Q13177); assay: Inhibition of human PAK2 at 1 uM using substrate peptide by off-chip mobility shift assay
[33] = target: Lymphokine-activated killer T-cell-originated protein kinase (Homo sapiens) (UniProt Q96KB5); assay: Inhibition of human PBK at 1 uM using substrate peptide by off-chip mobility shift assay
[34] = target: 3-phosphoinositide-dependent protein kinase 1 (Homo sapiens) (UniProt O15530); assay: Inhibition of human PDK1 at 1 uM using substrate peptide by off-chip mobility shift assay
[35] = target: Serine/threonine-protein kinase pim-1 (Homo sapiens) (UniProt P11309); assay: Inhibition of human PIM1 at 1 uM using substrate peptide by off-chip mobility shift assay
[36] = target: cAMP-dependent protein kinase catalytic subunit alpha (Homo sapiens) (UniProt P17612); assay: Inhibition of human PKACalpha at 1 uM using substrate peptide by off-chip mobility shift assay
[37] = target: Serine/threonine-protein kinase D2 (Homo sapiens) (UniProt Q9BZL6); assay: Inhibition of human PKD2 at 1 uM using substrate peptide by off-chip mobility shift assay
[38] = target: Rho-associated protein kinase 1 (Homo sapiens) (UniProt Q13464); assay: Inhibition of human ROCK1 at 1 uM using substrate peptide by off-chip mobility shift assay
[39] = target: Serine/threonine-protein kinase Sgk1 (Homo sapiens) (UniProt O00141); assay: Inhibition of human SGK at 1 uM using substrate peptide by off-chip mobility shift assay
[40] = target: Testis-specific serine/threonine-protein kinase 1 (Homo sapiens) (UniProt Q9BXA7); assay: Inhibition of human TSSK1 at 1 uM using substrate peptide by off-chip mobility shift assay
Chain of Testis-specific serine/threonine-protein kinase 1 (Homo sapiens) (Q9BXA7 whole entry): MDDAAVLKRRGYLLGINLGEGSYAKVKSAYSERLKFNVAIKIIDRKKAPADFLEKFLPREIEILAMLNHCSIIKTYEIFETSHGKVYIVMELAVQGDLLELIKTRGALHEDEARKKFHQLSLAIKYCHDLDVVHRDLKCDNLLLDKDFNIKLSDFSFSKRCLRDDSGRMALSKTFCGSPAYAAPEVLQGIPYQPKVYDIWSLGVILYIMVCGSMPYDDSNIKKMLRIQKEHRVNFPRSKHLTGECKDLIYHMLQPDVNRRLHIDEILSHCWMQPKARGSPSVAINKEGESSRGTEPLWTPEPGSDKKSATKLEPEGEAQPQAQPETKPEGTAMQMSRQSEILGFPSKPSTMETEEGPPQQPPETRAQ

Chain of Interleukin-1 receptor-associated kinase 4 (Homo sapiens) (Q9NWZ3 whole entry): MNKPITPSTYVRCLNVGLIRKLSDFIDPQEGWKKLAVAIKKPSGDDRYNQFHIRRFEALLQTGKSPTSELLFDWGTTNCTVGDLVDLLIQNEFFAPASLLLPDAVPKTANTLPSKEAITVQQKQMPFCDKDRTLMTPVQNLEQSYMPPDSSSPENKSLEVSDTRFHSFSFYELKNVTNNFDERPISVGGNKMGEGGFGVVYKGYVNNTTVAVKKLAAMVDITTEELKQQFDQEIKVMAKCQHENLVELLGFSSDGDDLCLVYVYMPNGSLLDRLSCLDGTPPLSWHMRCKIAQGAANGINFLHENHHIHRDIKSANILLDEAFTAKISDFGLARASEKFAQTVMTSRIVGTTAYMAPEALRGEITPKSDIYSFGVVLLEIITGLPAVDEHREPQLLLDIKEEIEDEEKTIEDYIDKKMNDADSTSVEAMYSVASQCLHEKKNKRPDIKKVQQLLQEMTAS
Chain of Cyclin-dependent kinase 19 (Homo sapiens) (Q9BWU1 whole entry): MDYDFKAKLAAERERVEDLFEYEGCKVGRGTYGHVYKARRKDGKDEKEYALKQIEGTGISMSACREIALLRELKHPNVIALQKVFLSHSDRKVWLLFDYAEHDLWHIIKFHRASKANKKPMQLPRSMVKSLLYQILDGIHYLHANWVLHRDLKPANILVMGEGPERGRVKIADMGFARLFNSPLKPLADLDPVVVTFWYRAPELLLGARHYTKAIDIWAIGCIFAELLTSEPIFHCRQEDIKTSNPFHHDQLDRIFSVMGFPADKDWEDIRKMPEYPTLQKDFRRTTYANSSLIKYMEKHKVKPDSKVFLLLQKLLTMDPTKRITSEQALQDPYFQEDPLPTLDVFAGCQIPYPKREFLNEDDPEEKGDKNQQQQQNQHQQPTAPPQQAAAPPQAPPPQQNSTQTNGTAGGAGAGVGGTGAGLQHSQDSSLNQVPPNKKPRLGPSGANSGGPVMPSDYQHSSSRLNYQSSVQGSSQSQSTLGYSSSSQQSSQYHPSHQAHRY
Chain of Serine/threonine-protein kinase Nek2 (Homo sapiens) (P51955 whole entry): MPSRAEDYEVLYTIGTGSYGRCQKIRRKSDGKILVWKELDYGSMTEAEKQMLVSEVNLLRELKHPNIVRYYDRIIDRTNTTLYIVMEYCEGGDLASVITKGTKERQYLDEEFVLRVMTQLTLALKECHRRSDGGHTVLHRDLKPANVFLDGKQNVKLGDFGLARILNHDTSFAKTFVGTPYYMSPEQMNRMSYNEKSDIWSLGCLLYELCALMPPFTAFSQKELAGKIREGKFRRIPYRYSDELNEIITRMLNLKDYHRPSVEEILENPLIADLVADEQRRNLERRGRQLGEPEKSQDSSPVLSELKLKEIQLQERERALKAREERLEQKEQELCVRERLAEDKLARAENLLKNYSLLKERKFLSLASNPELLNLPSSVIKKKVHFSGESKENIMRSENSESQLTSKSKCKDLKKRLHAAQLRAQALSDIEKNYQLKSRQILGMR
Chain of Serine/threonine-protein kinase pim-1 (Homo sapiens) (P11309 whole entry, looked up): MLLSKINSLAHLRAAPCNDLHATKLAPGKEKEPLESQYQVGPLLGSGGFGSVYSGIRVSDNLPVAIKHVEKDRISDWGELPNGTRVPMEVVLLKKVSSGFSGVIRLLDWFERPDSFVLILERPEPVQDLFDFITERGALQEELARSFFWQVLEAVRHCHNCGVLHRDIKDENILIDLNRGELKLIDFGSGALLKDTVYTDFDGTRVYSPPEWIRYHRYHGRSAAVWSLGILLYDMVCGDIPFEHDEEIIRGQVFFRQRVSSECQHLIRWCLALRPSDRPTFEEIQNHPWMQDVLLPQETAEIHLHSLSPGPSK
Chain of CDK3/Cyclin E (Homo sapiens) (P24864 whole entry, looked up): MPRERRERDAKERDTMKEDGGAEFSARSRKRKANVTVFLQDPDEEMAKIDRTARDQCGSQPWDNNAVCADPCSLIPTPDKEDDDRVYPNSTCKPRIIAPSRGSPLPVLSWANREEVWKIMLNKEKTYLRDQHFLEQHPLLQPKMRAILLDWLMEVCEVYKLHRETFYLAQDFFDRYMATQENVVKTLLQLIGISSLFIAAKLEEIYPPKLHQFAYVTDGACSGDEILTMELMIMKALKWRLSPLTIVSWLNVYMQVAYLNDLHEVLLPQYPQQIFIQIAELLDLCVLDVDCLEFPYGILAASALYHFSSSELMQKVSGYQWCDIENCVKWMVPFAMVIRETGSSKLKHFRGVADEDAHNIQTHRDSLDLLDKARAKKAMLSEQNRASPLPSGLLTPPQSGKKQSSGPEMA
Chain of CDK3/Cyclin E (Homo sapiens) (Q00526 whole entry, looked up): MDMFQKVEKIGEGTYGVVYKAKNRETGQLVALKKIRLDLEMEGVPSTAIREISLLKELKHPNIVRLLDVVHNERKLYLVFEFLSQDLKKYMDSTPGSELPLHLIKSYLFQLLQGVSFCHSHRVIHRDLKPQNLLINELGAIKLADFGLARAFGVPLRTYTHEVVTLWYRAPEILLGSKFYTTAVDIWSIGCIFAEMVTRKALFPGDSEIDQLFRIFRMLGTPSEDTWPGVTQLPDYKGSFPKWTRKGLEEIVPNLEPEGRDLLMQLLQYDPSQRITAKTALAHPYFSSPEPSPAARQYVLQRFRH
Chain of Mitogen-activated protein kinase kinase kinase kinase 4 (Homo sapiens) (O95819 2-1239 limits assumed): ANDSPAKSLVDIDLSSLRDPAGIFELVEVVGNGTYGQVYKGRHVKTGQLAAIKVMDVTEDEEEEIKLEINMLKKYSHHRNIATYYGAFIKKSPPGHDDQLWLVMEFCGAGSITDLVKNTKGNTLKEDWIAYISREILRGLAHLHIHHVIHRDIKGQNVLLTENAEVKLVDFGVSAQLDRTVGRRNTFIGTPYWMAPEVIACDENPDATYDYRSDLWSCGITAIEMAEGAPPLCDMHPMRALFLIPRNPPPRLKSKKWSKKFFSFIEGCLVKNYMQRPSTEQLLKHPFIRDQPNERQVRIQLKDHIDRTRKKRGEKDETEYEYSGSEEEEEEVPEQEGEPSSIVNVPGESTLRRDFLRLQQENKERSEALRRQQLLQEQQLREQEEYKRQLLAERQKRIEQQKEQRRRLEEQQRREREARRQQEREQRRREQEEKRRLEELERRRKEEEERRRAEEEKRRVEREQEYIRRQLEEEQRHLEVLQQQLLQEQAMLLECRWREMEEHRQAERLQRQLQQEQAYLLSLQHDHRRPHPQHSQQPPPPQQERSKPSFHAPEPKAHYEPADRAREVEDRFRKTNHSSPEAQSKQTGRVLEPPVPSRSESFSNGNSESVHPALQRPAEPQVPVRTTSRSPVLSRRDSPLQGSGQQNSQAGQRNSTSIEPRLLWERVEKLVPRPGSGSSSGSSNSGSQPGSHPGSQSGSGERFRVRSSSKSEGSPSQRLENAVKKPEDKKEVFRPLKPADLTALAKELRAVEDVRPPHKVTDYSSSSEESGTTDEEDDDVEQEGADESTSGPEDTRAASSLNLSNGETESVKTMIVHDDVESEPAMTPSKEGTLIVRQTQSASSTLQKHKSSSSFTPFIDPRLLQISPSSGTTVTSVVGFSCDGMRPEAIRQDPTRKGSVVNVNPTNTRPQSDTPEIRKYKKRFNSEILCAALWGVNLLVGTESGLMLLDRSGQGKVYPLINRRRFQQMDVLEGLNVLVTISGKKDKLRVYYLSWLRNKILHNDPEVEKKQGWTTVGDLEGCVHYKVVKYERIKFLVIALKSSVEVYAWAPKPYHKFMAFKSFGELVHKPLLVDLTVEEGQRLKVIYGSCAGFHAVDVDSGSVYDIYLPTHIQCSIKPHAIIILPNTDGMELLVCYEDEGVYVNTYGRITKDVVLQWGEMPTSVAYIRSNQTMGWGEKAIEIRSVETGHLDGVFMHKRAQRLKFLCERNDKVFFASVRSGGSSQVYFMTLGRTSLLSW
Chain of Calcium/calmodulin-dependent protein kinase type IV (Homo sapiens) (Q16566 whole entry): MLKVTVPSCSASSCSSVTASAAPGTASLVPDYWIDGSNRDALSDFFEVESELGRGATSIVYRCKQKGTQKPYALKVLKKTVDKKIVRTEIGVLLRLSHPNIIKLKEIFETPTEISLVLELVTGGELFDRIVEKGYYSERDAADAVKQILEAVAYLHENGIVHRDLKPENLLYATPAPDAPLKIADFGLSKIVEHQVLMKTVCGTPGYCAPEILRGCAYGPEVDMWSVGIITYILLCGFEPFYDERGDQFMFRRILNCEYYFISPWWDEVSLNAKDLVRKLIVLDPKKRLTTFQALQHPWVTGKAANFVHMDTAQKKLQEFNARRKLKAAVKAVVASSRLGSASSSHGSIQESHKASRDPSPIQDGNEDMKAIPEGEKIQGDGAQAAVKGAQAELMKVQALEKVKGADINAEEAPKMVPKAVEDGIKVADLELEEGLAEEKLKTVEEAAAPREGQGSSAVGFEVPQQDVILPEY
Chain of Serine/threonine-protein kinase Chk1 (Homo sapiens) (O14757 whole entry): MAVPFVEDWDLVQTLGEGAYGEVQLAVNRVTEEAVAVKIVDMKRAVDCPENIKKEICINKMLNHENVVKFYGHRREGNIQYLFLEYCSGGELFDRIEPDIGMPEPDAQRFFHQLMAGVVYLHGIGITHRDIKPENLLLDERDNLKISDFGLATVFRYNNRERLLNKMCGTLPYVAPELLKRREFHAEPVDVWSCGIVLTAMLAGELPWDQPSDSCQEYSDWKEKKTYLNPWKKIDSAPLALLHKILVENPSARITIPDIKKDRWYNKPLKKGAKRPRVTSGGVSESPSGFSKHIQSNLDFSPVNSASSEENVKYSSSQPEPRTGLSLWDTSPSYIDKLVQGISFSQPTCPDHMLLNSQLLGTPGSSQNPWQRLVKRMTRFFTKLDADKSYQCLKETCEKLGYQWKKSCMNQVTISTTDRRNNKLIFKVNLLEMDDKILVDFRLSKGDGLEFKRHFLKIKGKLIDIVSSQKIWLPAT

CC(=O)c1ccc(C(N)=O)cc1Oc1ccc(OCCOCCOC(C)C)cc1
inhibition [1]: > 90% | inhibition at 1 µM [2]: ≥ 50%

CNC(=O)c1ccc([N+](=O)[O-])c(Nc2ccc(N3CC(OCCO)C3)cc2)c1
inhibition [1]: > 90% | inhibition at 1 µM [2]: ≥ 50%

CC(=O)c1ccc(C(N)=O)cc1Oc1ccc(OCCOC2CCOCC2)cc1
inhibition [1]: > 90% | inhibition [3]: > 90% | inhibition [4]: inactive | inhibition [5]: inactive | inhibition [6]: inactive | inhibition [7]: inactive | inhibition [8]: inactive | inhibition [9]: inactive | inhibition [10]: inactive | inhibition [11]: inactive | inhibition [12]: inactive | inhibition [13]: inactive | inhibition [14]: inactive | inhibition [15]: inactive | inhibition [16]: inactive | inhibition [17]: inactive | inhibition [18]: inactive | inhibition [19]: inactive | inhibition [20]: inactive | inhibition [21]: inactive | inhibition [22]: inactive | inhibition [23]: inactive | inhibition [24]: inactive | inhibition [25]: inactive | inhibition [26]: inactive | inhibition [27]: inactive | inhibition [28]: inactive | inhibition [29]: inactive | inhibition [30]: inactive | inhibition [31]: inactive | inhibition [32]: inactive | inhibition [33]: inactive | inhibition [34]: inactive | inhibition [35]: inactive | inhibition [36]: inactive | inhibition [37]: inactive | inhibition [38]: inactive | inhibition [39]: inactive | inhibition [40]: inactive | inhibition at 1 µM [2]: ≥ 50%

CC(=O)c1ccc(C(N)=O)cc1Nc1ccc(OCCOCCCC(=O)O)cc1
inhibition [1]: > 90%

CC(=O)c1ccc(C(N)=O)cc1Oc1ccc(N2CC(OCCO)C2)cc1
inhibition [1]: > 90% | inhibition at 1 µM [2]: ≥ 50%

NC(=O)c1ccc([N+](=O)[O-])c(Nc2ccc(OCCOC3CCOCC3)cc2)c1
inhibition [1]: > 90% | inhibition at 1 µM [2]: ≥ 50%

C[C@@H](O)c1ccc(C(N)=O)cc1Oc1ccc(OCCOC2CCOCC2)cc1
inhibition [1]: > 90% | inhibition [3]: > 90%

CC(=O)c1ccc(C(N)=O)c(Oc2ccc(N3CC(OCCO)C3)cc2)c1
inhibition [1]: > 90%

COc1cc(Nc2ccc(N3CCN(CC(C)(C)C(=O)O)CC3)cc2)c([N+](=O)[O-])cc1F
inhibition [1]: > 90%

CC(=O)c1ccc(C(N)=O)cc1Oc1ccc(OCCOC2CCOC2)cc1 (configuration not stated)
inhibition [1]: > 90% | inhibition at 1 µM [2]: ≥ 50%

CC(C)OCCOCCOc1ccc(Oc2cc(C(N)=O)ccc2C(F)(F)F)cc1
inhibition [1]: > 90%

NC(=O)c1ccc(C(F)(F)F)c(Oc2ccc(OCCOC3CCOCC3)cc2)c1
inhibition [1]: > 90% | inhibition at 1 µM [2]: ≥ 50%

C=C(F)c1ccc(C(N)=O)cc1Oc1ccc(OCCOC2CCOCC2)cc1
inhibition [1]: > 90% | inhibition at 1 µM [2]: ≥ 50%

NC(=O)c1ccc([N+](=O)[O-])c(Nc2ccc(N3CC(OCCO)C3)cc2)c1
inhibition [1]: > 90% | inhibition at 1 µM [2]: ≥ 50%
